From patent publication US20230364070A1, “PYRROLO[3,2-C]PYRIDIN-4-ONE DERIVATIVES USEFUL IN THE TREATMENT OF CANCER” (Scorpion Therapeutics, Inc., priority 2020, published 2023)

Columns and labels:
Type in all cases: cell-based
pEGFR in CUTO14 cells = target: T1, pEGFR in CUTO14 cells (Homo sapiens, UniProt P00533, DUP767-769); experiment: Inhibitor activity on EGFR phosphorylation (pEGFR AlphaLISA, 2 h), CUTO14 cells
T1 construct: endogenous in cells; host or cells: CUTO14 cells
Procedure: CUTO14 cells were obtained from Dr. Robert C. Doebele at the University of Colorado.
Shake 350 rpm for 1 hr in the dark • 3.4 Prepare donor mix under low light conditions prior to use. Dispense 5 μL of donor mix to all the wells. Mix well on the shaker, seal and wrap in aluminum foil and incubate 1.5 hrs at room temperature in the dark • 3.5 Transfer 18.5 μL mixture to OptiPlate 384, and read using an Envision.

Ba/F3 cells with EGFR WT = target: T2, Ba/F3 cells with EGFR WT (Homo sapiens, UniProt P00533); experiment: EGFR activity: Ba/F3 cell viability (CellTiter-Glo, 72 h), EGFR WT; conditions: read-out: BaF3 WT IC50
T2 construct: expressed in transfected cells; host or cells: Ba/F3 (murine pro-B cells), retroviral transduction, puromycin selection, maintained with EGF
T2 sequence (P00533 25-1210): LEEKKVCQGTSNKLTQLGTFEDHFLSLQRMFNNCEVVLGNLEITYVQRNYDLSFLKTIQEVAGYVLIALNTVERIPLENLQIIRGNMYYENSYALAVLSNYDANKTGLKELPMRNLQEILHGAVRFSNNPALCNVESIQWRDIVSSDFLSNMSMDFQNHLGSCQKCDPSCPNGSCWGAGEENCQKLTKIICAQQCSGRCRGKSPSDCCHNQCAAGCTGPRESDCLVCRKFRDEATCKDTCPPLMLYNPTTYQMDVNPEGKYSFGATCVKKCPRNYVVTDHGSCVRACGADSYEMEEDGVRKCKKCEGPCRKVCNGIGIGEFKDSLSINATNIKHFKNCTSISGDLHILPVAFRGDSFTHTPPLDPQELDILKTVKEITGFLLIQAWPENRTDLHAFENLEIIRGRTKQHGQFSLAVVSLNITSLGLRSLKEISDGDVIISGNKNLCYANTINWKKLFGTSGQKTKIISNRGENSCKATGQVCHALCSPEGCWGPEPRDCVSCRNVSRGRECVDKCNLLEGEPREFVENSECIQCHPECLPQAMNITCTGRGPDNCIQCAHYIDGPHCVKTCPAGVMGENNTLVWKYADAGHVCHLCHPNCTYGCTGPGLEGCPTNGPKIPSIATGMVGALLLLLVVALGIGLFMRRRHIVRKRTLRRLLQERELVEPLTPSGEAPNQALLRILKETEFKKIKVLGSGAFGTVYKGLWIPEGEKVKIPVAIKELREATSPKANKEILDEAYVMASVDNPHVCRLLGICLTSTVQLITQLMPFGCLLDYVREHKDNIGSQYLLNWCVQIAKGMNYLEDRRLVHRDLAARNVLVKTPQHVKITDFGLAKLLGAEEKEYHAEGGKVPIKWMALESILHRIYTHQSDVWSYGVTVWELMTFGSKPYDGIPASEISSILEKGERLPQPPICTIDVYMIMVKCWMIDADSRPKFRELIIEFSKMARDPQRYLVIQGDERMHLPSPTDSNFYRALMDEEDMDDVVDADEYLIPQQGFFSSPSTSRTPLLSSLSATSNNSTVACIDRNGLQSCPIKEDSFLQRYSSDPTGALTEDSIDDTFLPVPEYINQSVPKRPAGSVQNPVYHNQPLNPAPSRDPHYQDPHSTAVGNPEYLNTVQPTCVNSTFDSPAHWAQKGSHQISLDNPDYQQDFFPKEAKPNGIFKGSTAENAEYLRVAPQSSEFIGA

[1] = target: T3, Ba/F3 cells with EGFR exon 20 ASV Ins V769_D770 (Homo sapiens, UniProt P00533, INS769ASV); experiment: EGFR activity: Ba/F3 cell viability (CellTiter-Glo, 72 h), EGFR exon 20 ASV insertion; conditions: EGFR exon 20 ASV Ins V769_D770, cell viability, read-out: BaF3 ASV IC50
T3 construct: expressed in transfected cells; host or cells: Ba/F3 (murine pro-B cells), retroviral transduction, puromycin selection, IL3-independent pool
T3 sequence (P00533 with tags, fused parts or gaps INS769ASV): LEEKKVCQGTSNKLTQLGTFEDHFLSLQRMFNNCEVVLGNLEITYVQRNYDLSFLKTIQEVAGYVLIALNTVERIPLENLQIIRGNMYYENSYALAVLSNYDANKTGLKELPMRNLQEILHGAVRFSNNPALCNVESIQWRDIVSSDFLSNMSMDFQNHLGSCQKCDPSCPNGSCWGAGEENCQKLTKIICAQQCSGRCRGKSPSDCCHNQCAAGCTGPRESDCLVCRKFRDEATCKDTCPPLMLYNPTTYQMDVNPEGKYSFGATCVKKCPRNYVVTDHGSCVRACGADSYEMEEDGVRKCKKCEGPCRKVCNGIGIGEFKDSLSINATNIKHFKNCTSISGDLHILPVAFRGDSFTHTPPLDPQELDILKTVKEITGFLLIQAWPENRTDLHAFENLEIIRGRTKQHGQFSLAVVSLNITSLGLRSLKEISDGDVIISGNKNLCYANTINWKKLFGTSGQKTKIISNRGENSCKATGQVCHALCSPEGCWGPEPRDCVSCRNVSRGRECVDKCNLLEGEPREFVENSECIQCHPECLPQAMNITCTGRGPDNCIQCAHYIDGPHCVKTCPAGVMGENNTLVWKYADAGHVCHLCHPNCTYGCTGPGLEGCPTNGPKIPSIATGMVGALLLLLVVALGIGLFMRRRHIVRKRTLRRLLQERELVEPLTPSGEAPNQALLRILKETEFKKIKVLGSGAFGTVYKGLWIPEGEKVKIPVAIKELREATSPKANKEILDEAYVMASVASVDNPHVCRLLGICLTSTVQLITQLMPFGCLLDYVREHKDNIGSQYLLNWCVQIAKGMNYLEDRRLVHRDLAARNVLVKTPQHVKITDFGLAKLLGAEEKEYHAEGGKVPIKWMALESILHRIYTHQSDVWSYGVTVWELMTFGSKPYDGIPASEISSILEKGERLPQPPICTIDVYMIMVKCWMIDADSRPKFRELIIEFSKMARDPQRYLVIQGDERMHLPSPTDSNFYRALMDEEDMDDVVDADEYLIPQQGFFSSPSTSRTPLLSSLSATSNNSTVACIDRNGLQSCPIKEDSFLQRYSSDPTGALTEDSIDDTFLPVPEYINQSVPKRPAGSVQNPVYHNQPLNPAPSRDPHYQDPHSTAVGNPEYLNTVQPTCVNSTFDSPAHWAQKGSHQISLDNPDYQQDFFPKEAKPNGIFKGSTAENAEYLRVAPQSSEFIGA

[2] = target: T4, Ba/F3 cells with EGFR exon 20 NPG Ins D770_N771 (Homo sapiens, UniProt P00533, INS770NPG); experiment: EGFR activity: Ba/F3 cell viability (CellTiter-Glo, 72 h), EGFR exon 20 NPG insertion; conditions: EGFR exon 20 NPG Ins D770_N771, cell viability, read-out: BaF3 NPG IC50
T4 construct: expressed in transfected cells; host or cells: Ba/F3 (murine pro-B cells), retroviral transduction, puromycin selection, IL3-independent pool
T4 sequence (P00533 with tags, fused parts or gaps INS770NPG): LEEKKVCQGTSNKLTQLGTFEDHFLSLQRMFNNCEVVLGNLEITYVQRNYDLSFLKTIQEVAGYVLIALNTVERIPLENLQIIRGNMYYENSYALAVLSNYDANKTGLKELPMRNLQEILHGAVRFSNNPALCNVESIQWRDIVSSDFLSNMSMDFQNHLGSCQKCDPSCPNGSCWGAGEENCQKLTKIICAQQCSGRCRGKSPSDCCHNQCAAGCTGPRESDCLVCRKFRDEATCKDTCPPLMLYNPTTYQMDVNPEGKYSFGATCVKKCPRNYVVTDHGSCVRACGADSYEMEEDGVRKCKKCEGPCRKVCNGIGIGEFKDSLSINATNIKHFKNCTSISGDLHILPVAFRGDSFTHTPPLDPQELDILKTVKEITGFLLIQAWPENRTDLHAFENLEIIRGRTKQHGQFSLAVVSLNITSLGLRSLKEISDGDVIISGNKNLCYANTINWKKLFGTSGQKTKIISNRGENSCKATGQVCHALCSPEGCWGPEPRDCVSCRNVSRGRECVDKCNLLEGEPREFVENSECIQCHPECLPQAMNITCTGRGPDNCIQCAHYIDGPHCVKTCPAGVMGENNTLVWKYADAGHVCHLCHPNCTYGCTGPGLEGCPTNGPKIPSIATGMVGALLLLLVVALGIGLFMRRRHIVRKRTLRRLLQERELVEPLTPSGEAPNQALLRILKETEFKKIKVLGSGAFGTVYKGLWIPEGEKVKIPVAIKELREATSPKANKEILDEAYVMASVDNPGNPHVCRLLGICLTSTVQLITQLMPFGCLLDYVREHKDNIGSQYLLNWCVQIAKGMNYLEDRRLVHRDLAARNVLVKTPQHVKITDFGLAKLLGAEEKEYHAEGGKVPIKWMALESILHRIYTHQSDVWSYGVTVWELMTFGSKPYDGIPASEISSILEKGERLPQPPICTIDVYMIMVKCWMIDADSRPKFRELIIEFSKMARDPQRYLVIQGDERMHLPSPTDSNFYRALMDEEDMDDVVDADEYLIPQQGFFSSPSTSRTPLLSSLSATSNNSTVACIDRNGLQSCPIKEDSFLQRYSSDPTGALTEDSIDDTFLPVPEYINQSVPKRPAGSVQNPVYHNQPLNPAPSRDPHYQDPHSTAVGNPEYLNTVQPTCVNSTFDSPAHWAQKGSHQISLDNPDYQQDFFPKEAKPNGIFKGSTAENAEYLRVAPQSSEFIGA

T1 sequence (P00533 with tags, fused parts or gaps DUP767-769): as the sequence (P00533 with tags, fused parts or gaps INS769ASV) above

Structure (SMILES)	IC50 (pEGFR in CUTO14 cells) [nM]	IC50 (Ba/F3 cells with EGFR WT) [nM]	IC50 [1] [nM]	IC50 [2] [nM]
C=CC(=O)N1[C@@H](COc2cnccc2-c2[nH]c3c(c2Nc2cccc(F)c2OC)C(=O)NCC3)C[C@H]1C (relative stereo) [compound 332]	< 100			
C=CC(=O)N1CC(C)(C)C1C#Cc1cnccc1-c1[nH]c2c(c1Nc1cccc(Cl)c1OC)C(=O)NCC2 (single isomer, unassigned) [compound 233]	< 100			
C=CC(=O)N1CC(C)(C)C1C#Cc1cnccc1-c1[nH]c2c(c1Nc1cccc(F)c1OC)C(=O)NCC2 (single isomer, unassigned) [compound 249]	< 100			
C=CC(=O)NC1(C#Cc2cnccc2-c2[nH]c3c(c2Nc2cccc(Cl)c2OC)C(=O)NCC3)CCOC1 (single isomer, unassigned) [compound 322]	< 100			
C=CC(=O)N1CCC1(C)COc1cnccc1-c1[nH]c2c(c1Nc1cccc(F)c1CC)C(=O)NCC2 (single isomer, unassigned) [compound 359]	< 100			
C=CC(=O)N1CCC1(C)COc1cnccc1-c1[nH]c2c(c1Nc1cccc(Cl)c1OC)C(=O)NCC2 (single isomer, unassigned) [compound 511]	< 100			
C=CC(=O)N1CC(C)(C)C1COc1cnccc1-c1[nH]c2c(c1Nc1cccc(Cl)c1OC)C(=O)NCC2 (single isomer, unassigned) [compound 513]	< 100			
C=CC(=O)NC1(C#Cc2cnccc2-c2[nH]c3c(c2Nc2cccc(F)c2OC)C(=O)NCC3)CC1 [compound 206, N-{1-[2-(4-{3-[(3-fluoro-2-methoxyphenyl)amino]-4-oxo-1H,5H,6H,7H-pyrrolo[3,2-c]pyridin-2-yl}pyridin-3-yl)ethynyl]cyclopropyl}prop-2-enamide]	< 100			
Cc1c(F)cccc1Nc1c(-c2ccncc2OC[C@@H]2CCCN2C(=O)/C=C/CN(C)C)[nH]c2c1C(=O)NCC2 [compound 217, 2-(3-{[(2S)-1-[(2E)-4-(dimethylamino)but-2-enoyl]pyrrolidin-2-yl]methoxy}pyridin-4-yl)-3-[(3-fluoro-2-methylphenyl)amino]-1H,5H,6H,7H-pyrrolo[3,2-c] pyridin-4-one]	< 100			
C=CC(=O)N1CC(C)(C)[C@H]1C#Cc1cnccc1-c1[nH]c2c(c1Nc1cccc(Cl)c1OC)C(=O)NCC2 [compound 232, 3-[(3-chloro-2-methoxyphenyl)amino]-2-(3-{2-[(2R)-3,3-dimethyl-1-(prop-2-enoyl)azetidin-2-yl]ethynyl}pyridin-4-yl)-1H,5H,6H,7H-pyrrolo[3,2-c]pyridin-4-one]	< 100			
C=CC(=O)N1CC(C)(C)C[C@@H]1C#Cc1cnccc1-c1[nH]c2c(c1Nc1cccc(F)c1OC)C(=O)NCC2 [compound 253, 2-(3-{2-[(2R)-4,4-dimethyl-1-(prop-2-enoyl)pyrrolidin-2-yl]ethynyl}pyridin-4-yl)-3-[(3-fluoro-2-methoxyphenyl)amino]-1H,5H,6H,7H-pyrrolo[3,2-c]pyridin-4-one]	< 100			
C=CC(=O)N(C)C(C)(C)C#Cc1cnccc1-c1[nH]c2c(c1Nc1cccc(F)c1OC)C(=O)NCC2 [compound 259, N-[4-(4-{3-[(3-fluoro-2-methoxyphenyl)amino]-4-oxo-1H,5H,6H,7H-pyrrolo[3,2-c]pyridin-2-yl}pyridin-3-yl)-2-methylbut-3-yn-2-yl]-N-methylprop-2-enamide]	< 100			
C=CC(=O)NC1(C#Cc2cnccc2-c2[nH]c3c(c2Nc2cccc(F)c2OC)C(=O)NCC3)COC1 [compound 263]	< 100			
C=CC(=O)N1[C@H]2CC[C@H](C2)[C@@H]1COc1cnccc1-c1[nH]c2c(c1Nc1cccc(Cl)c1OC)C(=O)NCC2 [compound 274, 3-[(3-chloro-2-methoxyphenyl)amino]-2-(3-{[(1S,3R,4R)-2-(prop-2-enoyl)-2-azabicyclo[2.2.1]heptan-3-yl]methoxy}pyridin-4-yl)-1H,5H,6H,7H-pyrrolo[3,2-c]pyridin-4-one]	< 100			
CC#CC(=O)N1CC[C@H]1COc1cnccc1-c1[nH]c2c(c1Nc1cccc(Cl)c1OC)C(=O)NCC2 [compound 288, 2-(3-{[(2S)-1-(but-2-ynoyl)azetidin-2-yl]methoxy}pyridin-4-yl)-3-[(3-chloro-2-methoxyphenyl)amino]-1H,5H,6H,7H-pyrrolo[3,2-c]pyridin-4-one]	< 100			
C=CC(=O)NC1(C#Cc2cnccc2-c2[nH]c3c(c2Nc2cccc(Cl)c2OC)C(=O)NCC3)CN(C)C1 [compound 410]		> 1000	100 to 1000	< 100
C=CC(=O)NC(C)(C)C#Cc1cnccc1-c1[nH]c2c(c1Nc1cc(F)cc(Cl)c1OC)C(=O)NCC2 [compound 428]		100 to 1000	< 100	< 100
COc1c(Cl)cc(F)cc1Nc1c(-c2ccncc2C#C[C@@]2(C)CCCN2C(=O)C#CCN(C)C)[nH]c2c1C(=O)NCC2 [compound 432]		100 to 1000	< 100	< 100
COc1c(Cl)cc(F)cc1Nc1c(-c2ccncc2C#CC23CC(CN2C(=O)/C=C/CN(C)C)C3)[nH]c2c1C(=O)NCC2 [compound 438]		100 to 1000	< 100	< 100

Structure (SMILES)	IC50 (pEGFR in CUTO14 cells) [nM]	IC50 (Ba/F3 cells with EGFR WT) [nM]	IC50 [1] [nM]	IC50 [2] [nM]
C=CC(=O)NC1(C#Cc2cnccc2-c2[nH]c3c(c2Nc2cccc(Cl)c2OC)C(=O)NCC3)CNC1 [compound 455]		> 1000	> 1000	> 1000
COc1c(F)cccc1Nc1c(-c2ccncc2C#C[C@@]2(C)COCCN2C(=O)/C=C/CN(C)C)[nH]c2c1C(=O)NCC2 [compound 459]		> 1000	< 100	< 100
C=CC(=O)N1CCOC[C@]1(C)C#Cc1cnccc1-c1[nH]c2c(c1Nc1cccc(F)c1OC)C(=O)NCC2 [compound 460]		100 to 1000	< 100	< 100
C=CC(=O)N1CCOC[C@]1(C)C#Cc1cnccc1-c1[nH]c2c(c1Nc1cccc(Cl)c1OC)C(=O)NCC2 [compound 461]		100 to 1000	< 100	< 100
COc1c(Cl)cccc1Nc1c(-c2ccncc2C#C[C@H]2CN(C)CCO2)[nH]c2c1C(=O)NCC2 [compound 495]		100 to 1000	< 100	< 100
Cc1c(F)cccc1Nc1c(-c2ccncc2C#CC(C)(C)C)[nH]c2c1C(=O)NCC2 [compound 499]		> 1000	< 100	< 100
COc1c(Cl)cccc1Nc1c(-c2ccncc2C#CC2CCCC2)[nH]c2c1C(=O)NCC2 [compound 526]		100 to 1000	< 100	< 100
C=C(CN(C)C)C(=O)NC(C)(C)C#Cc1cnccc1-c1[nH]c2c(c1Nc1cccc(Cl)c1OC)C(=O)NCC2 [compound 574]		< 100	< 100	< 100
C=C(CN(C)C)C(=O)NC(C)(C)C#Cc1cnccc1-c1[nH]c2c(c1Nc1cccc(F)c1OC)C(=O)NCC2 [compound 575]		< 100	< 100	< 100
C=CC(=O)N[C@H](C#Cc1cnccc1-c1[nH]c2c(c1Nc1cccc(Cl)c1OC)C(=O)NCC2)CC [compound 581]		100 to 1000	< 100	< 100
C=CC(=O)N[C@@H](C#Cc1cnccc1-c1[nH]c2c(c1Nc1cccc(Cl)c1OC)C(=O)NCC2)CC [compound 582]		> 1000	< 100	< 100
COc1c(F)cccc1Nc1c(-c2ccncc2C#C[C@H]2CCN2C(=O)/C=C/CN(C)C)[nH]c2c1C(=O)NCC2 [compound 593]		100 to 1000	< 100	< 100
COc1c(F)cccc1Nc1c(-c2ccncc2C#C[C@@H]2CCN2C(=O)/C=C/CN(C)C)[nH]c2c1C(=O)NCC2 [compound 594]		> 1000	< 100	< 100
COc1c(Cl)cccc1Nc1c(-c2ccncc2C#C[C@@]2(C)CCCN2C(=O)/C=C/CNC2COC2)[nH]c2c1C(=O)NCC2 [compound 595]		> 1000	100 to 1000	< 100
COc1c(Cl)cccc1Nc1c(-c2ccncc2C#C[C@@]2(C)CCCN2C(=O)/C=C/CN2CC(F)(F)C2)[nH]c2c1C(=O)NCC2 [compound 603]		> 1000	100 to 1000	100 to 1000
CC#CC(=O)N1CC[C@@H]1COc1cnccc1-c1[nH]c2cc[nH]c(=O)c2c1Nc1cccc(Cl)c1OC [compound 630]		> 1000	< 100	< 100
COc1c(F)cccc1Nc1c(-c2ccncc2C#C[C@]2(C)COCCN2C(=O)/C=C/CN(C)C)[nH]c2c1C(=O)NCC2 [compound 631]		100 to 1000	< 100	< 100
C=CC(=O)N1CCOC[C@@]1(C)C#Cc1cnccc1-c1[nH]c2c(c1Nc1cccc(F)c1OC)C(=O)NCC2 [compound 632]		100 to 1000	< 100	< 100
C=CC(=O)N1CCOC[C@@]1(C)C#Cc1cnccc1-c1[nH]c2c(c1Nc1cccc(Cl)c1OC)C(=O)NCC2 [compound 634]		100 to 1000	< 100	< 100
